{
  "source": "patent US11766412B2",
  "about": "“Methods of treating or alleviating adenylosuccinatelyase (ADSL) deficiency using spermidine or a pharmaceutically acceptable salt of spermidine” (GENEHEAL BIOTECHNOLOGY CO., LTD., priority 2016, dated 2023)",
  "note": "Non-standard residues stand in square brackets, D forms with d. Residues, ends and D or L forms follow the SMILES beside them. Arg(NO2) = N=C(NCCC[C@H](N)C(=O)O)N[N+](=O)[O-]; Dab = NCC[C@H](N)C(=O)O",
  "data": [
    {"test_system": "SAICAR synthetase", "test": "Inhibition of SAICAR accumulation, biochemical enzyme activity experiments and cell biology experiments", "text": "On the basis of the above results, the crystal structure conformations in SAICAR synthetases of Saccharomyces cerevisiae (PDB: 2CNQ) and Escherichia coli (PDB: 2GQS) are used as receptor structures for calculating and screening, since there is no conformation which can bind CAIR in human PAICS crystal structure, and no catalytic conformation formed in the catalytic region, and the results obtained by calculation are not reliable. 4661 of small molecule drugs in the DrugBank (www.drugbank.ca) are calculated and screened by using the ligand fit module of Discovery studio. The conformations are ordered according to dock scores, and then the first 500 conformations are selected. After eliminating the repetitions, key screening results are obtained. In addition, the inhibition ratios of the compounds against SAICAR accumulation are confirmed by biochemical enzyme activity experiments and cell biology experiments, as shown in Table 1.", "units": {"Inhibition ratios against SAICAR accumulation": "%"}, "values": [
      {"compound": "N[C@@H](CCC(=O)N[C@@H](CSCc1ccc([N+](=O)[O-])cc1)C(=O)NCC(=O)O)C(=O)O", "note": "[D1303686, S-(P-Nitrobenzyl)Glutathione]", "Inhibition ratios against SAICAR accumulation": 63.83},
      {"compound": "NC[C@H]1O[C@H](O[C@H]2[C@H](O)[C@@H](O)[C@H](N)C[C@@H]2N)[C@H](N)[C@@H](O)[C@@H]1O", "note": "[D1304808, Neamine]", "Inhibition ratios against SAICAR accumulation": 37.11},
      {"compound": "N[C@@H](Cc1cc(N=Nc2ccccn2)c(O)cc1O)C(=O)O", "note": "[DB01634, 2-Oxy-4-Hydroxy-5-(2-Hydrazinopyridine)Phenylalanine]", "Inhibition ratios against SAICAR accumulation": 23.7},
      {"compound": "NC(CC1=CC(=NC2CC2c2ccccc2)C(O)=CC1=O)C(=O)O", "note": "(stereo not drawn) [DB01657, 2-Amino-3-[4-Hydroxy-6-Oxo-3-(2-Phenyl-Cyclopropylimino)-Cyclohexa-1,4-Dienyl]-Propionic acid]", "Inhibition ratios against SAICAR accumulation": 22.9},
      {"compound": "Cc1ncc(COP(=O)(O)O)c(CN[C@@H](CCC(=O)O)C(=O)O)c1O", "note": "[DB01813, Pyridoxyl-Glutamic Acid-5′-Monophosphate]", "Inhibition ratios against SAICAR accumulation": 40.9},
      {"compound": "N[C@@H](CCCCNC(C(=O)O)C(=O)O)C(=O)O", "note": "[DB01815, Nz-(Dicarboxymethyl)Lysine]", "Inhibition ratios against SAICAR accumulation": 22.68},
      {"compound": "NCC[C@H](NC(=O)[C@@H](N)CCCN=C(N)N[N+](=O)[O-])C(N)=O", "note": "[DB01821, L-N(Omega)-Nitroarginine-2,4-L-Diaminobutyric Amide] (H-[Arg(NO2)]-[Dab]-NH2)", "Inhibition ratios against SAICAR accumulation": 57.11},
      {"compound": "Nc1ncnc2c1ncn2[C@@H]1O[C@H](COP(=O)(O)OC(=O)[C@@H](N)CC(=O)O)[C@@H](O)[C@H]1O", "note": "[DB01895, Aspartyl-Adenosine-5′-Monophosphate]", "Inhibition ratios against SAICAR accumulation": 22.918},
      {"compound": "NC(CSC1C=C(C(N)C(=O)O)ON1)C(=O)O", "note": "(stereo not drawn) [DB01974, 2-Amino-3-[5-(Amino-Carboxy-Methyl)-2,3-Dihydro-Isoxazol-3-Ylsulfanyl]-Propionic Acid]", "Inhibition ratios against SAICAR accumulation": 66.711},
      {"compound": "NCCC[C@H](NC(=O)CP(=O)(O)O)C(=O)O", "note": "[DB02011, N-(phosphonoacetyl)-L-Ornithine]", "Inhibition ratios against SAICAR accumulation": 41.85},
      {"compound": "O=c1[nH]cnc2c([C@@H]3N[C@H](COP(=O)(O)O)[C@@H](O)[C@H]3O)c[nH]c12", "note": "[DB02075, (1s)-1-(9-Deazahypoxanthin-9-yl)-1,4-Di Deoxy-1,4-Imino-D-Ribitol-5-Phosphate]", "Inhibition ratios against SAICAR accumulation": 28.5},
      {"compound": "NC(=O)[C@@H]1C[C@@H](NC(=O)[C@@H](N)CCCN=C(N)N[N+](=O)[O-])CN1", "note": "[DB02077, L-N(Omega)-Nitroarginine-(4r)-Amino-L-Proline Amide]", "Inhibition ratios against SAICAR accumulation": 71.8},
      {"compound": "NC(=NCCCC(N)C(=O)O)NC(CC(=O)O)C(=O)O", "note": "(stereo not drawn) [DB02267, Argininosuccinate]", "Inhibition ratios against SAICAR accumulation": 86.81},
      {"compound": "OCC(OS(O)(O)O)[C@H](O)CN1C[C@@H](O)[C@H](O)[C@H]1CO", "note": "(stereo partly drawn) [DB02492, Ghavamiol]", "Inhibition ratios against SAICAR accumulation": 17.4},
      {"compound": "Cc1ccc(OCC(=CC=O)Nc2cc(C[C@H](N)C(=O)O)c(O)cc2O)cc1", "note": "[DB02537, 2 -Hydroxy-5-({1-[(4-Methylphenoxy)Methyl]-3-Oxoprop-1-Enyl}Amino)-L-Tyrosin]", "Inhibition ratios against SAICAR accumulation": 71.1},
      {"compound": "Cc1ncc(COP(=O)(O)O)c(CNCC(=O)O)c1O", "note": "[DB02824, N-Pyridoxyl-Glycine-5-Monophosphate]", "Inhibition ratios against SAICAR accumulation": 77.97},
      {"compound": "CC(N)C(CCCCCC(=O)O)NC(=O)OP(=O)(O)O", "note": "(stereo not drawn) [DB02927, Mixed Carbamic Phosphoric Acid Anhydride of 7,8-Diaminononanic acid]", "Inhibition ratios against SAICAR accumulation": 22.8},
      {"compound": "CC(N)C(CCCCCC(=O)O)CC(=O)O", "note": "(stereo not drawn) [DB02941, 3-(1-Aminoethyl)Nonanedioic Acid]", "Inhibition ratios against SAICAR accumulation": 69.8},
      {"compound": "N[C@@H](CCC(=O)N[C@@H](CS(=O)(=O)O)C(=O)NCC(=O)O)C(=O)O", "note": "[DB03003, Glutathione Sulfonic acid]", "Inhibition ratios against SAICAR accumulation": 38},
      {"compound": "C=C[C@@H](NC(=O)[C@H](CS)NC(=O)CCC[C@H](N)C(=O)O)C(=O)O", "note": "[DB03427, Delta-(L-Alpha-Aminoadipoyl)-L-Cysteinyl-D-Vinylglycine]", "Inhibition ratios against SAICAR accumulation": 13.3},
      {"compound": "Cc1ncc(COP(=O)(O)O)c(CNC(C(C)C)P(=O)(O)O)c1O", "note": "(stereo not drawn) [DB03433, {[(3-Hydroxy-2-Methyl-5-Phosphonooxymethyl-Pyridin-4-ylmethyl)-Amino]-2-Methyl-Propyl}-Phosphonic Acid]", "Inhibition ratios against SAICAR accumulation": 53.38},
      {"compound": "NCCCCNCCCN", "note": "[DB03566, Spermidine]", "Inhibition ratios against SAICAR accumulation": 68.98},
      {"compound": "NCCC[C@H](NC(=O)CCC(=O)O)C(=O)O", "note": "[DB03582, N-2-Succinylornithine]", "Inhibition ratios against SAICAR accumulation": 19.97},
      {"compound": "N[C@@H](CCC(=O)N[C@@H](CSCc1ccccc1)C(=O)NCC(=O)O)C(=O)O", "note": "[DB03602, S-Benzyl-Glutathione]", "Inhibition ratios against SAICAR accumulation": 36.5},
      {"compound": "CC(N)C(CCCCCC(=O)O)NC(=O)O", "note": "(stereo not drawn) [DB03624, 7-(Carboxyamino)-8-Amino-Nonanoic Acid]", "Inhibition ratios against SAICAR accumulation": 51.9},
      {"compound": "C[C@@H](NC(=O)CCCC[C@H](NC(=O)CN)C(=O)O)C(=O)O", "note": "[DB03927, Glycyl-L-Alpha-Amino-Epsilon-Pimelyl-D-Alanine]", "Inhibition ratios against SAICAR accumulation": 29.859},
      {"compound": "N[C@@H](CCC(=O)N[C@@H](CSCO)C(=O)NCC(=O)O)C(=O)O", "note": "[DB04153, S-Hydroxymethyl Glutathione]", "Inhibition ratios against SAICAR accumulation": 58},
      {"compound": "NC(CCCCN[C@@H](CCC(=O)O)C(=O)O)C(=O)O", "note": "(stereo partly drawn) [DB04207, N-(5-Amino-5-Carboxypentyl)-Glutamic Acid]", "Inhibition ratios against SAICAR accumulation": 65.69},
      {"compound": "N[C@@H](CSC1CC(CC(=O)O)ON1N)C(=O)O", "note": "(stereo partly drawn) [DB04323, 2-Amino-3-(Cystein-S-Yl)-Isoxazolidin-5-Yl-Acetic acid]", "Inhibition ratios against SAICAR accumulation": 56.68},
      {"compound": "N[C@@H](CCC(=O)N[C@@H](CSCc1cccc(I)c1)C(=O)NCC(=O)O)C(=O)O", "note": "[DB04341, S-(3-Iodobenzyl)Glutathione]", "Inhibition ratios against SAICAR accumulation": 9.9},
      {"compound": "Cc1cccc(C2=C(c3ccc4ncccc4n3)CNN2)n1", "note": "[DB04434, Naphthyridine Inhibitor]", "Inhibition ratios against SAICAR accumulation": 22.98},
      {"compound": "CN(C)c1ncnc2c1ncn2[C@@H]1O[C@H](COP(=O)(O)O)[C@@H](N)[C@H]1O", "note": "[DB04602, PUROMYCIN AMINONUCLEOSIDE-5′-MONOPHOSPHATE]", "Inhibition ratios against SAICAR accumulation": 12.9},
      {"compound": "CN(CC[C@H](N)CC(=O)N[C@H]1C=C[C@H](N2C=C[C@@](N)(O)NC2=O)O[C@@H]1C(=O)O)C(=N)N", "note": "[DB04649, TETRAHEDRAL INTERMEDIATE OF BLASTICIDIN S]", "Inhibition ratios against SAICAR accumulation": 20.09},
      {"compound": "NCCCCCCNCCCCCCN", "note": "[DB04684, BIS(HEXAMETHYLENE)TRIAMINE]", "Inhibition ratios against SAICAR accumulation": 9.3},
      {"compound": "N[C@@H](CCC(=O)N[C@@H](CS(=O)O)C(=O)NCC(=O)O)C(=O)O", "note": "[DB04700, GLUTATHIONE SULFINATE]", "Inhibition ratios against SAICAR accumulation": 9.98},
      {"compound": "CSC[C@H](NC(=O)CC[C@H](N)C(=O)O)C(=O)NCC(=O)O", "note": "[DB04701, S-METHYL-GLUTATHIONE]", "Inhibition ratios against SAICAR accumulation": 40.1},
      {"compound": "Cc1ncc(COP(=O)(O)O)c(CN[C@H](CCC(=O)O)C(=O)O)c1O", "note": "[DB04762, N-PYRIDOXYL-D-GLUTAMIC ACID-5′-MONOPHOSPHATE]", "Inhibition ratios against SAICAR accumulation": 27.7},
      {"compound": "C[C@H](NC(=NCC(=O)O)Nc1ccc(C#N)cc1)c1ccccc1", "note": "[DB04778, SC45647]", "Inhibition ratios against SAICAR accumulation": 11.29},
      {"compound": "N-ethyl-N[3-(propylamino)propyl]propane-1,3-diamine [DB04633]", "Inhibition ratios against SAICAR accumulation": 12.798}
    ]}
  ]
}
